Patent US20230146795A1, “ENHANCEMENT OF ANTI-TUMOR ACTIVITY OF SHP2 INHIBITOR PYRIMIDINONE IN COMBINATION WITH NOVEL CANCER MEDICINES IN CANCERS” (TAIHO PHARMACEUTICAL CO., LTD., priority 2020, published 2023)
pIC50: −log10 of the molar value.

Legend:
[1] = tested on: NCI-H358, MKN45, NCI-H23, RT 4, MV-4-11, RMG-I; experiment: Anti-proliferation assay, summary over the cell lines of table 3; type: cell-based
Experimental: Cell lines were obtained from ATCC or Health Science Research Resources Bank.
384 well culture plate (781086, Greiner Bio-One International) was used for cell survival rate measurement assay. Each cell lines were collected by ordinary method, then suspended in indicated medium containing 10% fetal bovine serum in table 3. The number of cells seeded per well was set to 500 cells/20 μL. After incubation at 37° C. for 24 hours under 5% CO2, Compound 1 and additional compound having an antitumor effect or a vehicle (DMSO) was added to each well by using D300e Digital Dispenser (Tecan). The concentration of Compound 1 was set to 10 concentrations. The concentration of each anti-cancer reagents set to 8 concentrations including 0 nM. After adding the medicine to the cells, the cells were further incubated at 37° C. for 3 days under 5% CO2. Cell survival rates were calculated by adding 20 μL of CellTiter-Glo(registered trademark) 2. 0 (Promega) solution to each well, incubating the cells at room temperature for 10 minutes, and then measuring the chemiluminescence intensity of each well using a plate reader (ARVO).
A combination index (CI) value at each combined concentration of the medicines was determined.

[2] = target: T1, SHP2 (Homo sapiens, UniProt Q06124); experiment: SHP2 biochemical assay (DiFMUP conversion); conditions: 10 pM SHP2, 0.25 μM pIRS1 peptide, 50 μM DiFMUP
T1 sequence (Q06124 1-593): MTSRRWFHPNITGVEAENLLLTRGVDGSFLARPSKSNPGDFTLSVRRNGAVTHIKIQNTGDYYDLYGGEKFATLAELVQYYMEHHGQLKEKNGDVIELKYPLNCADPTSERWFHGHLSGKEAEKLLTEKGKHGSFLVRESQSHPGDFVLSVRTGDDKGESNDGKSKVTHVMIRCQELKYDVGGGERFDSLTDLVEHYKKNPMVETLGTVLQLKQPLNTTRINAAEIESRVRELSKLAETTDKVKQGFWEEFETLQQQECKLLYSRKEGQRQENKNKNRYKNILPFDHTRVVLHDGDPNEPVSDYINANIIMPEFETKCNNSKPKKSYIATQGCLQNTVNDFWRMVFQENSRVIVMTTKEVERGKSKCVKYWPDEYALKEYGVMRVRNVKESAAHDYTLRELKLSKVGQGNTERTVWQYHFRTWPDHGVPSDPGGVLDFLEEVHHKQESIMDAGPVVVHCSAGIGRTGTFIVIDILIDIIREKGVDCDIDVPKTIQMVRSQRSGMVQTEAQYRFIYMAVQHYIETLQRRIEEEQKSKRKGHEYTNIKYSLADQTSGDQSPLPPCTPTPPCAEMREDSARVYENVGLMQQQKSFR
Experimental: (1) SHP2 Biochemical Assay SHP2 Activity was Monitored by Measuring the Conversion of the Surrogate Substrate 6,8-Difluoromethylumbelliferyl Phosphate (DiEMUP) to the Fluorescent Product, 6,8-Difluoromethylumbelliferone (DiFMU).
SHP2 was pre-incubated with test compounds and the activating peptide pIRS1 (H2N-LN(pY) IDLDLV-(PEG) 8-LST(pY)ASINFQK-amide) for 30 min, prior to addition of the 6,8-difluoromethylumbelliferyl phosphate (DiEMUP), (Thermo Fisher D6567). Final assay concentrations were 10 pM SHP2, 0.25 μM pIRS1 peptide, 50 μM DiFMUP, 25 mM Bis-Tris propane, pH 7.0, 150 mM NaCl, 0.05% (v/v) Tween-20, 0.5 mM TCEP and 5% (v/v) DMSO. Rates of reaction were then measured over 30 min by monitoring fluorescence on a BMG Pherastar reader at excitation 360 nm/emission 450 nm. IC50 values were calculated in singlicate from the normalized dose-response plots using four parameter logistic curve fit. The Experiment for each compound was carried out in one time or multiple times, and the IC50 values were shown as a single value (for a compound measured in a single experiment) or an average value (for a compound measured in multiple experiments).

Cn1nc2ccc(-c3c[nH]c4nc(N5[C@H]6CC[C@@H]5[C@H](N)C6)n(C)c(=O)c34)c(Cl)c2c1Cl [Compound 1, 2-((1R,2R,4S)-2-amino-7-azabicyclo[2.2.1]heptan-7-yl)-5-(3,4-dichloro-2-methyl-2H-indazol-5-yl)-3-methyl-3,7-dihydro-4H-pyrrolo[2,3-d]pyrimidin-4-one]
synergistically enhanced: anti-proliferation activity in combination ([1]; with ALK, Her family (EGFR and HER2), BCR-ABL, FLT3, multi-kinase (PDGFR and VEGFR), c-kit inhibitor) | anti-proliferation activity in combination ([1]; with BCL2 inhibitor) | anti-proliferation activity in combination ([1]; with CDK4/6 inhibitor) | anti-proliferation activity in combination ([1]; with HDAC inhibitor) | anti-proliferation activity in combination ([1]; with PI3K inhibitor or AKT inhibitor) | anti-proliferation activity in combination ([1]; with RAF inhibitor, MEK inhibitor or ERK inhibitor) | anti-proliferation activity in combination ([1]; with anthracycline antibiotics) | anti-proliferation activity in combination ([1]; with anti-metabolite) | anti-proliferation activity in combination ([1]; with microtubule inhibitor) | anti-proliferation activity in combination ([1]; with platinum antitumor agent) | anti-proliferation activity in combination ([1]; with topoisomerase inhibitor)
8.70: pIC50 [2]
